Data: publication PMC11020753, “Contribution of amino acids in the active site of dipeptidyl peptidase 4 to the catalytic action of the enzyme” (PLOS ONE, 2024)
Like-named read-outs stand apart in the source and are kept apart here. Non-standard residues stand in square brackets, D forms with d. Residues, ends and D or L forms follow the SMILES beside them. *: point of attachment. AMC = Cc1cc(=O)oc2cc(N*)ccc12; Tle = CC(C)(C)[C@H](N)C(=O)O

Assays:
Assay type in all cases: biochemical
[1] = target: T1, DP4 variant N710A (Homo sapiens, UniProt P27487, N710A); assay: Hydrolysis of dipeptide-AMC substrates (fluorescence); conditions: for Km / kcat: N710A, substrate hydrolysis, 100 mM HEPES-buffer (pH 7.6), T = 30 °C
T1 construct: His(6)-37-766 hDP4 containing fractions were concentrated to 1 ml; made in house; host or cells: Pichia pastoris X-33 (vector pPICZα C, secreted)
Protocol: (§1) The reactions were performed in 100 mM HEPES buffer, pH 7.6 at 30°C in a total assay volume of 270 μl by using 96-well plates. […] Fluorescence was detected with a […]luor Plus (TECAN) at an excitation wavelength of 380 nm and an emission wavelength of 465 nm.

[2] = target: T2, DP4 variant E206A (Homo sapiens, UniProt P27487, E206A); assay: as above; conditions: substrate hydrolysis, 100 mM HEPES-buffer (pH 7.6), T = 30 °C
T2 construct: His(6)-37-766 hDP4 containing fractions were concentrated to 1 ml as described above; His6 (N); made in house; host or cells: Pichia pastoris X-33, vector pPICZα C (secreted)
Protocol: as §1

[3] = target: T3, wild type DP4 (Homo sapiens, UniProt P27487); assay: as above; conditions: substrate hydrolysis, 100 mM HEPES-buffer (pH 7.6), T = 30 °C
T3 construct: His(6)-37-766 hDP4 containing fractions were concentrated to 1 ml; made in house; host or cells: Pichia pastoris X-33 (vector pPICZα C, secreted)
Protocol: as §1

[4] = target: T4, DP4 variant E205A (Homo sapiens, UniProt P27487, E205A); assay: as above; conditions: substrate hydrolysis, 100 mM HEPES-buffer (pH 7.6), T = 30 °C
T4 construct: His(6)-37-766 hDP4 containing fractions were concentrated to 1 ml as described above; His6 (N); made in house; host or cells: Pichia pastoris X-33, vector pPICZα C (secreted)
Protocol: as §1

[5] = target: T5, DP4 variant R125A (Homo sapiens, UniProt P27487, R125A); assay: as above; conditions: substrate hydrolysis, 100 mM HEPES-buffer (pH 7.6), T = 30 °C
T5 construct: His(6)-37-766 hDP4 containing fractions were concentrated to 1 ml; made in house; host or cells: Pichia pastoris X-33 (vector pPICZα C, secreted)
Protocol: as §1

[6] = target: T6, DP4 variant R125K (Homo sapiens, UniProt P27487, R125K); assay: as above; conditions: substrate hydrolysis, 100 mM HEPES-buffer (pH 7.6), T = 30 °C
T6 construct: His(6)-37-766 hDP4 containing fractions were concentrated to 1 ml; made in house; host or cells: Pichia pastoris X-33 (vector pPICZα C, secreted)
Protocol: as §1

[7] = target: T7, DP4 variant N710D (Homo sapiens, UniProt P27487, N710D); assay: as above; conditions: substrate hydrolysis, 100 mM HEPES-buffer (pH 7.6), T = 30 °C
T7 construct: His(6)-37-766 hDP4 containing fractions were concentrated to 1 ml; made in house; host or cells: Pichia pastoris X-33 (vector pPICZα C, secreted)
Protocol: (§4) The reactions were performed in 100 mM HEPES buffer, pH 7.6 at 30°C in a total assay volume of 270 μl by using 96-well plates. […] Fluorescence was detected with a [sequence]luor Plus (TECAN) at an excitation wavelength of 380 nm and an emission wavelength of 465 nm.

[8] = target: T8, DP4 variant N710Q (Homo sapiens, UniProt P27487, N710Q); assay: as above
T8 construct: His(6)-37-766 hDP4 containing fractions were concentrated to 1 ml; made in house; host or cells: Pichia pastoris X-33 (vector pPICZα C, secreted)
Protocol: as §4

[9] = target: T1, DP4 variant N710A; assay: IC50 determination with substrate Gly-Pro-AMC; conditions: 100 mM HEPES-buffer (pH 7.6), T = 30 °C, substrate Gly-Pro-AMC in the range of Km
Protocol: as §1

[10] = target: T2, DP4 variant E206A; assay: IC50 determination with substrate Gly-Pro-AMC; conditions: bounds given in mM, 100 mM HEPES-buffer (pH 7.6), T = 30 °C, substrate Gly-Pro-AMC in the range of Km
Protocol: as §1

[11] = target: T8, DP4 variant N710Q; assay: IC50 determination with substrate Gly-Pro-AMC; conditions: bounds given in mM, 100 mM HEPES-buffer (pH 7.6), T = 30 °C, substrate Gly-Pro-AMC in the range of Km
Protocol: as §1

[12] = target: T7, DP4 variant N710D; assay: IC50 determination with substrate Gly-Pro-AMC; conditions: 100 mM HEPES-buffer (pH 7.6), T = 30 °C, substrate Gly-Pro-AMC in the range of Km
Protocol: as §1

[13] = target: T3, wild type DP4; assay: IC50 determination with substrate Gly-Pro-AMC; conditions: 100 mM HEPES-buffer (pH 7.6), T = 30 °C, substrate Gly-Pro-AMC in the range of Km
Protocol: as §1

[14] = target: T4, DP4 variant E205A; assay: IC50 determination with substrate Gly-Pro-AMC; conditions: 100 mM HEPES-buffer (pH 7.6), T = 30 °C, substrate Gly-Pro-AMC in the range of Km
Protocol: as §1

[15] = target: T5, DP4 variant R125A; assay: IC50 determination with substrate Gly-Pro-AMC; conditions: 100 mM HEPES-buffer (pH 7.6), T = 30 °C, substrate Gly-Pro-AMC in the range of Km
Protocol: as §1

[16] = target: T6, DP4 variant R125K; assay: IC50 determination with substrate Gly-Pro-AMC; conditions: 100 mM HEPES-buffer (pH 7.6), T = 30 °C, substrate Gly-Pro-AMC in the range of Km
Protocol: as §1

[17] = target: T1, DP4 variant N710A; assay: Cleavage of peptide hormones by MALDI-TOF mass spectrometry; conditions: T = 37 °C, 100 mM Tris-HCl, pH 7.6, substrate concentration 25 μM
Protocol: (§2) Enzyme concentration 5 x 10^−9 M, substrate concentration 25 μM, reaction time 1–3 hours, depending on the respective hydrolysis rate. Reactions were stopped by addition of 1 volume DHAP/DAHC-matrix, dissolved in 50% (v/v) acetonitrile, after certain time points. The matrix-sample mixture was placed in a vacuum, which caused the proteins to crystallize together with the matrix. Using the mass spectrometer "LD-TOF System G2025" from Hewlett Packard, the relative amount of substrate and respective product peaks in the samples could be determined. Relative hydrolysis rates were depicted by plotting relative substrate concentration against time.

[18] = target: T2, DP4 variant E206A; assay: as above; conditions: T = 37 °C, 100 mM Tris-HCl, pH 7.6, substrate concentration 25 μM
Protocol: as §2

[19] = target: T8, DP4 variant N710Q; assay: as above; conditions: T = 37 °C, 100 mM Tris-HCl, pH 7.6, substrate concentration 25 μM
Protocol: as §2

[20] = target: T7, DP4 variant N710D; assay: as above; conditions: T = 37 °C, 100 mM Tris-HCl, pH 7.6, substrate concentration 25 μM
Protocol: as §2

[21] = target: T4, DP4 variant E205A; assay: as above; conditions: T = 37 °C, 100 mM Tris-HCl, pH 7.6, substrate concentration 25 μM
Protocol: as §2

[22] = target: T5, DP4 variant R125A; assay: as above; conditions: T = 37 °C, 100 mM Tris-HCl, pH 7.6, substrate concentration 25 μM
Protocol: as §2

[23] = target: T3, wild type DP4; assay: as above; design: key: +++: hydrolysis is comparable with the data obtained from the wild type enzyme; -: hydrolysis below 0,01% of the wild type enzyme; conditions: T = 37 °C, 100 mM Tris-HCl, pH 7.6, substrate concentration 25 μM
Protocol: as §2

[24] = target: T6, DP4 variant R125K; assay: as above; design: key: +++: hydrolysis is comparable with the data obtained from the wild type enzyme; -: hydrolysis below 0,01% of the wild type enzyme; conditions: T = 37 °C, 100 mM Tris-HCl, pH 7.6, substrate concentration 25 μM
Protocol: as §2

[25] = target: T3, wild type DP4; assay: Km and kcat determination by LC/MS-MS assay; conditions: hydrolysis of peptide hormone, 10 mM Tris-buffer (pH 7.6), T = 30 °C
Protocol: (§3) Therefore, DP4 was incubated with different substrate concentrations in 10 mM Tris-buffer pH 7.6 at 30°C. Enzyme concentrations and incubation times were chosen to obtain a linear product formation. After selected time points, samples were taken and the reaction stopped by addition of 19 volumes 0,1% HCOOH. Cleavage products were quantified in the respective samples by LC/MS-MS assay.

[26] = target: T5, DP4 variant R125A; assay: Km and kcat determination by LC/MS-MS assay; conditions: hydrolysis of peptide hormone, 10 mM Tris-buffer (pH 7.6), T = 30 °C
Protocol: as §3

[27] = target: T6, DP4 variant R125K; assay: Km and kcat determination by LC/MS-MS assay; conditions: hydrolysis of peptide hormone, 10 mM Tris-buffer (pH 7.6), T = 30 °C
Protocol: as §3

[28] = N710Q, substrate hydrolysis, 100 mM HEPES-buffer (pH 7.6), T = 30 °C

T5 sequence (P27487 37-766 R125A): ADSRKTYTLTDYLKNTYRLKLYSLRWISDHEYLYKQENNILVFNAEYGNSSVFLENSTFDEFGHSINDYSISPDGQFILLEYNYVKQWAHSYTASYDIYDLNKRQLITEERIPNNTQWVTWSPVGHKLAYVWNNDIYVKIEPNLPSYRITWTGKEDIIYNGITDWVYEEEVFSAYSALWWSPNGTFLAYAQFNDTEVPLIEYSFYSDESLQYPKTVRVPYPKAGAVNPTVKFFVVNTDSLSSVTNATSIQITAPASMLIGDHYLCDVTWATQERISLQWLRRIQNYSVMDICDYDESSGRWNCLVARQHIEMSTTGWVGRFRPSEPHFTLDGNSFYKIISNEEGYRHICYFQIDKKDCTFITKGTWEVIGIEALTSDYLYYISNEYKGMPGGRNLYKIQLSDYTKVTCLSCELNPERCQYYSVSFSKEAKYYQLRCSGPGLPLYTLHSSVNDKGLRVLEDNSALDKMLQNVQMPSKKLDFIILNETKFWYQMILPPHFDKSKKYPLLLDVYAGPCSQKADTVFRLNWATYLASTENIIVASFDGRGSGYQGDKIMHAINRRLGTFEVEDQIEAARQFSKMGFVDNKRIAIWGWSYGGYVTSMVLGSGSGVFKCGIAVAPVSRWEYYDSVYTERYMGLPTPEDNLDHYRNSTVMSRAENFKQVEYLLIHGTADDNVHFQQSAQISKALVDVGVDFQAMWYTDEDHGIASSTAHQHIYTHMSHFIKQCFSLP
T2 sequence (P27487 37-766 E206A): as the sequence (P27487 37-766 R125A) above, with A89R, E170A counted along it
T3 sequence (P27487 37-766): as the sequence (P27487 37-766 R125A) above, with A89R counted along it
T6 sequence (P27487 37-766 R125K): as the sequence (P27487 37-766 R125A) above, with A89K counted along it
T8 sequence (P27487 37-766 N710Q): as the sequence (P27487 37-766 R125A) above, with A89R, N674Q counted along it
T1 sequence (P27487 37-766 N710A): as the sequence (P27487 37-766 R125A) above, with A89R, N674A counted along it
T7 sequence (P27487 37-766 N710D): as the sequence (P27487 37-766 R125A) above, with A89R, N674D counted along it
T4 sequence (P27487 37-766 E205A): as the sequence (P27487 37-766 R125A) above, with A89R, E169A counted along it

Compound	Km [1]	kcat [1]	kcat [2]	Km [3]	kcat [3]	Km [4]	kcat [4]	Km [5]	kcat [5]	Km [6]	kcat [6]	kcat [7]	kcat [8, 28]	IC50 [10]	IC50 [11]	IC50 [12]	IC50 [13]	IC50 [14]	IC50 [15]	IC50 [16]	other results
Cc1cc(=O)oc2cc(NC(=O)[C@H](C)NC(=O)[C@H](C)N)ccc12 [Ala-Ala-AMC] (H-Ala-Ala-{AMC})	410 µM	(9.4 ± 0.06) · 10^−3 s^−1	No hydrolysis at concentrations < 10 mM	550 µM	5.7 ± 0.18 s⁻¹	4700 µM	0.15 ± 0.015 s⁻¹	710 µM	2.3 ± 0.08 s⁻¹	1500 µM	2.6 ± 0.09 s⁻¹	0.05 ± 0.003 s⁻¹	No hydrolysis at concentrations < 10 mM								Km [2]: No hydrolysis at concentrations < 10 mM; Km [7]: 1800 µM; Km [8, 28]: No hydrolysis at concentrations < 10 mM
Cc1cc(=O)oc2cc(NC(=O)[C@@H]3CCCN3C(=O)[C@H](C)N)ccc12 [Ala-Pro-AMC] (H-Ala-Pro-{AMC})	1700 µM	0.74 ± 0.03 s⁻¹	0.8 ± 0.05 s⁻¹	19 µM	32 ± 0.9 s⁻¹	240 µM	17 ± 0.2 s⁻¹	37 µM	48 ± 1.0 s⁻¹	38 µM	37 ± 0.5 s⁻¹	19 ± 0.6 s⁻¹	0.23 ± 0.01 s⁻¹								Change of Km-value in comparison to the wild type enzyme (decreased) ([1]; N710A vs wild type): 100 fold; Drop of kcat-value in comparison to the wild type enzyme ([1]; N710A vs wild type): ~30 factor; Km ([2]; read-out: Km): 3400 µM; Change of Km-value in comparison to the wild type enzyme (decreased) ([8]; N710Q vs wild type): 100 fold; Drop of kcat-value in comparison to the wild type enzyme ([8]; N710Q vs wild type): ~30 factor
CC[C@H](C)[C@H](NC(=O)[C@@H]1CCCN1C(=O)[C@@H](N)C(C)(C)C)C(=O)O [t-Bu-Gly-Pro-Ile, t-Butyl-Gly-Pro-Ile] (H-[Tle]-Pro-Ile-OH)														> 10 mM	> 10 mM	600 µM	3.6 µM	1700 µM	400 µM	200 µM	IC50 ([9]; bounds given in mM): > 10 mM
CC[C@H](C)[C@H](NC(=O)[C@@H]1CCCN1C(=O)[C@@H](N)C(C)(C)C)C(N)=O [t-Bu-Gly-Pro-Ile-NH2, t-Butyl-Gly-Pro-Ile-NH2] (H-[Tle]-Pro-Ile-NH2)														> 10 mM	> 10 mM	400 µM	6.7 µM	1300 µM	80 µM	53 µM	IC50 [9]: 0.14 mM
PACAP38: physiological DP4 substrate, peptide hormone, serine in P1 position (H2N-H-S-Q…)																					Hydrolysis of peptide hormone in comparison to the DP4 wild type enzyme [17]: - (hydrolysis below 0,01% of the wild type enzyme); Hydrolysis of peptide hormone in comparison to the DP4 wild type enzyme [18]: - (hydrolysis below 0,01% of the wild type enzyme); Hydrolysis of peptide hormone in comparison to the DP4 wild type enzyme [19]: - (hydrolysis below 0,01% of the wild type enzyme); Hydrolysis of peptide hormone in comparison to the DP4 wild type enzyme [20]: - (hydrolysis below 0,01% of the wild type enzyme); Hydrolysis of peptide hormone in comparison to the DP4 wild type enzyme [21]: - (hydrolysis below 0,01% of the wild type enzyme); Hydrolysis of peptide hormone in comparison to the DP4 wild type enzyme [22]: - (hydrolysis below 0,01% of the wild type enzyme); Hydrolysis of peptide hormone in comparison to the DP4 wild type enzyme [23]: +++; Hydrolysis of peptide hormone in comparison to the DP4 wild type enzyme [24]: - (hydrolysis below 0,01% of the wild type enzyme)
glucose-dependent insulinotropic peptide [GIP]																					kcat [25]: 3.9 ± 0.2 s⁻¹; kcat [26]: 0.16 ± 0.08 s⁻¹; kcat [27]: 0.88 ± 0.08 s⁻¹; Hydrolysis of peptide hormone in comparison to the DP4 wild type enzyme [17]: - (hydrolysis below 0,01% of the wild type enzyme); Hydrolysis of peptide hormone in comparison to the DP4 wild type enzyme [18]: - (hydrolysis below 0,01% of the wild type enzyme); Hydrolysis of peptide hormone in comparison to the DP4 wild type enzyme [19]: - (hydrolysis below 0,01% of the wild type enzyme); Hydrolysis of peptide hormone in comparison to the DP4 wild type enzyme [20]: - (hydrolysis below 0,01% of the wild type enzyme); Hydrolysis of peptide hormone in comparison to the DP4 wild type enzyme [21]: - (hydrolysis below 0,01% of the wild type enzyme); Hydrolysis of peptide hormone in comparison to the DP4 wild type enzyme [23]: +++
